Results published in publication PMC10507085, “Pharmacological inhibition of TBK1/IKKε blunts immunopathology in a murine model of SARS-CoV-2 infection” (Nature Communications, 2023).

What was measured:
Assay in all cases: biochemical
Set-up in all cases: KINOMEscan competition binding, DNA-tagged kinase against immobilised ligand, qPCR read-out
Conditions in all cases: read-out: Percent Control
MAP3K11 = MAP3K11 (Homo sapiens, UniProt Q16584)
ZAP70 = ZAP70 (Homo sapiens, UniProt P43403)
MAPKAPK5 = MAPKAPK5 (Homo sapiens, UniProt Q8IW41)
Chain of MAPKAPK5 (Q8IW41 whole entry): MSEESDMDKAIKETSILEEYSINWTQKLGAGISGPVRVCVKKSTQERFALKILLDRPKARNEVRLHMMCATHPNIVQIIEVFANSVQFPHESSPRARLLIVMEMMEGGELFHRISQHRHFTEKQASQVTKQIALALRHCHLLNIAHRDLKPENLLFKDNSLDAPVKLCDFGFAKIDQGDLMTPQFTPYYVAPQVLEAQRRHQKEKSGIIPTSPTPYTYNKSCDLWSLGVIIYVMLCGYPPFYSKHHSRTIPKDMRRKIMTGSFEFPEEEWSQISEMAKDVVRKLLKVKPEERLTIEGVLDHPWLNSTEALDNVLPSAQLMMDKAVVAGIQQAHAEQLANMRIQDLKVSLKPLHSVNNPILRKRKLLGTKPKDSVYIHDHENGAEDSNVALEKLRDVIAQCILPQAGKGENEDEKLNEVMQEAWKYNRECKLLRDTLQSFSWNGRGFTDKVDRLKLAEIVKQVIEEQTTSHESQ

CDK11B = CDK11B (Homo sapiens, UniProt P21127)
Chain of CDK11B (P21127 whole entry): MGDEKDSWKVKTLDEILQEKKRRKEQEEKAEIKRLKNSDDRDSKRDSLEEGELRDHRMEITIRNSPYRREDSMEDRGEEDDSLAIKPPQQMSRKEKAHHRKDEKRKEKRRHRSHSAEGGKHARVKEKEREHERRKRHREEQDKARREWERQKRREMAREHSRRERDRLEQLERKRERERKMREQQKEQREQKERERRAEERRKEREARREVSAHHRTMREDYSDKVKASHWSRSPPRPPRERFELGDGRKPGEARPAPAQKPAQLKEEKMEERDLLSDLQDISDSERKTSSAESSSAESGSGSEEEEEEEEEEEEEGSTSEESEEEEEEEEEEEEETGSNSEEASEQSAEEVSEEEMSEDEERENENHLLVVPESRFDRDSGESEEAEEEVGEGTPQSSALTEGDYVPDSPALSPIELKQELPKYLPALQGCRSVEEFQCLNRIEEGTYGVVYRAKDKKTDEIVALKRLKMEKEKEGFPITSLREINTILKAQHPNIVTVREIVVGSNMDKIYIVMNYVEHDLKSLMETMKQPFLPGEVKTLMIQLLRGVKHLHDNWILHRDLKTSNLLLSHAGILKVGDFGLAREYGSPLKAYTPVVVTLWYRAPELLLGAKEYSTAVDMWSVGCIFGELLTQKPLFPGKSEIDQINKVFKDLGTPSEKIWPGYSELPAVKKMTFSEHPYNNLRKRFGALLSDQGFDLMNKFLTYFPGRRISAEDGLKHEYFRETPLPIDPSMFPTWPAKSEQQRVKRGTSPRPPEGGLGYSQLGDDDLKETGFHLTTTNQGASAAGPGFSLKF

CDC42BPG = CDC42BPG (Homo sapiens, UniProt Q6DT37)
STK10 = STK10 (Homo sapiens, UniProt O94804)
Chain of STK10 (O94804 whole entry): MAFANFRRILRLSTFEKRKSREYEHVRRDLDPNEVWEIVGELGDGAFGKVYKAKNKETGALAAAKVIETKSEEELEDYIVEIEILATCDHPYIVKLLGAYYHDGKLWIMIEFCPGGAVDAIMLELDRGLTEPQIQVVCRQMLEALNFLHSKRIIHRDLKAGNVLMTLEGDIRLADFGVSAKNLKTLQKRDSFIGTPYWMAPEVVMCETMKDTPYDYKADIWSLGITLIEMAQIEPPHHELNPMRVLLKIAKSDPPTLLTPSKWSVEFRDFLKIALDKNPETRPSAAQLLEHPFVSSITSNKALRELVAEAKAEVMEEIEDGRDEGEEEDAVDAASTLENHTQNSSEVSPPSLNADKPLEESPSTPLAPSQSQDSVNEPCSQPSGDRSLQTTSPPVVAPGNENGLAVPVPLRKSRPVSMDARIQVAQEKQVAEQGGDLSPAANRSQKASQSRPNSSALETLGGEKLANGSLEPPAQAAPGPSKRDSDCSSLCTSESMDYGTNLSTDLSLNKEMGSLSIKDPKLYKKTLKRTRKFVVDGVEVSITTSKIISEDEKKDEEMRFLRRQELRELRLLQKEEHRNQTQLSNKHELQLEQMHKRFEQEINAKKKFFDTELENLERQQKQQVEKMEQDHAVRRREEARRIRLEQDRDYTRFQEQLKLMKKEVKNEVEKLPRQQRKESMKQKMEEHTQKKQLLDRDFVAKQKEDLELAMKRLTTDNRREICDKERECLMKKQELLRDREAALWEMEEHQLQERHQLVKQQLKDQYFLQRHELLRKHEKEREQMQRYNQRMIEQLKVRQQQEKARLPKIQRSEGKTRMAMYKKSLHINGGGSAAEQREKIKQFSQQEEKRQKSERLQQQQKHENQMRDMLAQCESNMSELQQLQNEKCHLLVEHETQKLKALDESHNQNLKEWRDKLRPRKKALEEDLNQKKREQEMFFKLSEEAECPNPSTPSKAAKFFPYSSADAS

MAPK10 = MAPK10 (Homo sapiens, UniProt P53779)
Chain of MAPK10 (P53779 whole entry): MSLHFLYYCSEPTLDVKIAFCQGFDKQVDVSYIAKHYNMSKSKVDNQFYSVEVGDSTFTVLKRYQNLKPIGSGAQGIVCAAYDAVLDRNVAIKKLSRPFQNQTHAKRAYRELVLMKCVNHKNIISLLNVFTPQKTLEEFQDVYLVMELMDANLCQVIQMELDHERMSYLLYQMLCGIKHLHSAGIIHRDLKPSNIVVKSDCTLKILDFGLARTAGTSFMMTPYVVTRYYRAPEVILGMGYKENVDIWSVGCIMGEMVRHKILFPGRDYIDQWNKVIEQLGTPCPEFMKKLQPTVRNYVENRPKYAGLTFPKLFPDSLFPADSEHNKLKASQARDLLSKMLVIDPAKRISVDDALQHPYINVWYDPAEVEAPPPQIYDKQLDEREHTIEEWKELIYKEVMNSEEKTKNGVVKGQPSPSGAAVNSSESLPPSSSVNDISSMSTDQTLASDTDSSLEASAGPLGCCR

SLK = SLK (Homo sapiens, UniProt Q9H2G2)
CDC42BPB = CDC42BPB (Homo sapiens, UniProt Q9Y5S2)
MAP3K12 = MAP3K12 (Homo sapiens, UniProt Q12852)
STK32A = STK32A (Homo sapiens, UniProt Q8WU08)
CAMK2B = CAMK2B (Homo sapiens, UniProt Q13554)
TNK1 = TNK1 (Homo sapiens, UniProt Q13470)
Chain of TNK1 (Q13470 whole entry): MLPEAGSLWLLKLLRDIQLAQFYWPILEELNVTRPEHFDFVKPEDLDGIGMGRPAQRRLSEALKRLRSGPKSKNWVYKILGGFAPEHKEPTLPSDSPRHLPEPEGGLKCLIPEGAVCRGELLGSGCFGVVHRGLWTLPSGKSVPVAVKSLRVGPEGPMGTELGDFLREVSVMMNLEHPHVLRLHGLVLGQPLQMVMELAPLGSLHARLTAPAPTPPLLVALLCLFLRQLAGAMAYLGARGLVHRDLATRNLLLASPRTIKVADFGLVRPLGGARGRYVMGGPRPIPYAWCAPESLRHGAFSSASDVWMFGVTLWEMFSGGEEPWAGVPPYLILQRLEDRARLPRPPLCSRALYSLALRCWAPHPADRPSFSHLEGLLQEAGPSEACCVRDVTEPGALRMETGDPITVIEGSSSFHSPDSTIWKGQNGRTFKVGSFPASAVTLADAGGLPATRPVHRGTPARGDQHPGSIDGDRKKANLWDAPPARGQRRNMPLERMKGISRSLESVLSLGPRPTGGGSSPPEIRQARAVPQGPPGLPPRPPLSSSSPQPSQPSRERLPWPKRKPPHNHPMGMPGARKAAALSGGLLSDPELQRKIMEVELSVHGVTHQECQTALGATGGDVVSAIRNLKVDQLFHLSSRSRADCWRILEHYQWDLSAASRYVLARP

ULK2 = ULK2 (Homo sapiens, UniProt Q8IYT8)
KIT = KIT (Homo sapiens, UniProt P10721)
MAP3K10 = MAP3K10 (Homo sapiens, UniProt Q02779)
Chain of MAP3K10 (Q02779 whole entry): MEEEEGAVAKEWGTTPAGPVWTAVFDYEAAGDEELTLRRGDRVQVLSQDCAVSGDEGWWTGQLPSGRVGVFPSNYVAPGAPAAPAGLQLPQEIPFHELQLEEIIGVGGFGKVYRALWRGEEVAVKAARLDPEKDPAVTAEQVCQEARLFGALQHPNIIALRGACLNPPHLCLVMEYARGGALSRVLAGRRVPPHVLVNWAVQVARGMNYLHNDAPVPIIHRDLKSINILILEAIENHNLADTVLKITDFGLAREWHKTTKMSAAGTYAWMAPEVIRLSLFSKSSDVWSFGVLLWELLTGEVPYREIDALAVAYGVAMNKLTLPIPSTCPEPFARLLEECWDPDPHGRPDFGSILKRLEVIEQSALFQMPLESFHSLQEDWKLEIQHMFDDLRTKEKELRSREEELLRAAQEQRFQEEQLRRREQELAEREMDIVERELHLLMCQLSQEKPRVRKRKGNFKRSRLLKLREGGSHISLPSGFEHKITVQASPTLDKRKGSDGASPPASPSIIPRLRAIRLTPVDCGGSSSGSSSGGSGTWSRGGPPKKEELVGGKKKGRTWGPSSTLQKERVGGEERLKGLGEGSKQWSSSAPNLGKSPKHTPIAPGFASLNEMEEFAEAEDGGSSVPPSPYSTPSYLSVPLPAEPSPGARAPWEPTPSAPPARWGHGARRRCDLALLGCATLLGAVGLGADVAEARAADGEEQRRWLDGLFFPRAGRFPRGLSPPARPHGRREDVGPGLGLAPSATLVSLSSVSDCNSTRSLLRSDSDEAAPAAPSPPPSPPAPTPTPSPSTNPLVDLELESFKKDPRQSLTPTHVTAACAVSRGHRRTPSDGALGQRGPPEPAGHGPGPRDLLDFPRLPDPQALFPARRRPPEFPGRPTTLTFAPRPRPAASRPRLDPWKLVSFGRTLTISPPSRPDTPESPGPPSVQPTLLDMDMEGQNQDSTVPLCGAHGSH

STK3 = STK3 (Homo sapiens, UniProt Q13188)
CLK3 = CLK3 (Homo sapiens, UniProt P49761)
Chain of CLK3 (P49761 whole entry): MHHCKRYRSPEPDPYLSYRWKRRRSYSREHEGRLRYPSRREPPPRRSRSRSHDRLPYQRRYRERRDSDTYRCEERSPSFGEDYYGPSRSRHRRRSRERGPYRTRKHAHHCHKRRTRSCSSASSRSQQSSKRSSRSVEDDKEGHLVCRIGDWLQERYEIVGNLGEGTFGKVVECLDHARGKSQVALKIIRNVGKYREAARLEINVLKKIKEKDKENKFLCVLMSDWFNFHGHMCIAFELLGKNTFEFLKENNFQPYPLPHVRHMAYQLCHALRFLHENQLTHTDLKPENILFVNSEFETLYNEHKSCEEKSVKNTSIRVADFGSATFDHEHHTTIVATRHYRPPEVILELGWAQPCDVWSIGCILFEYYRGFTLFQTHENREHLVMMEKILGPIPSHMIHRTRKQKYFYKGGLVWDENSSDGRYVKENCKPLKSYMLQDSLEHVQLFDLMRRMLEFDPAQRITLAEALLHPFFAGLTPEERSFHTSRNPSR

HCK = HCK (Homo sapiens, UniProt P08631)
PIK3CD = PIK3CD (Homo sapiens, UniProt O00329)

Oc1ccc(C2=Cc3ccc(O)cc3OC2)cc1 [compound 1, idronoxil]
remaining binding at 10 µM (MAP3K11): 63%
remaining binding at 10 µM (ZAP70): 78%
remaining binding at 10 µM (MAPKAPK5): 75%
remaining binding at 10 µM (CDK11B): 96%
remaining binding at 10 µM (CDC42BPG): 93%
remaining binding at 10 µM (STK10): 100%
remaining binding at 10 µM (MAPK10): 93%
remaining binding at 10 µM (SLK): 73%
remaining binding at 10 µM (CDC42BPB): 88%
remaining binding at 10 µM (MAP3K12): 75%
remaining binding at 10 µM (STK32A): 94%
remaining binding at 10 µM (CAMK2B): 83%
remaining binding at 10 µM (TNK1): 76%
remaining binding at 10 µM (ULK2): 100%
remaining binding at 10 µM (KIT): 19%
remaining binding at 10 µM (MAP3K10): 82%
remaining binding at 10 µM (STK3): 93%
remaining binding at 10 µM (CLK3): 70%
remaining binding at 10 µM (HCK): 83%
remaining binding at 10 µM (PIK3CD): 86%
